Experimental data reported in paper PMC5688156, “The natural product carolacton inhibits folate-dependent C1 metabolism by targeting FolD/MTHFD” (Nature Communications, 2017).
In brackets after ≈: the same amount, converted by molar mass.

Columns and labels:
E. coli (TolC-deficient) = experiment: MIC determination on E. coli (TolC-deficient); assay type: cell-based, Escherichia coli; details: 16 h
Experimental: First, the minimum inhibitory concentration (MIC) of carolacton on the E. coliΔtolC strain was determined. We started to develop the resistant mutants on CASO agar (peptone from casein 15 g/L, peptone from soybean 5 g/L, NaCl 5 g/L and agar 15 g/L; pH 7.3) plates supplemented with 4× the MIC concentration of carolacton (0.5 μg/mL) as selection pressure. Different numbers of E. coliΔtolC cells from 1 × 10^7 to 10^9 were spread on caso agar plates with carolacton. After 7 days, E. coliΔtolC colonies, which were resistant to carolacton, started to form on the agar plates. The mutants picked were inoculated in liquid MHB medium (beef extract 2 g/L, peptone from casein 17.5 g/L and corn starch 1.5 g/L, pH 7.4) supplemented with carolacton.
The determination of MICs was performed as described elsewhere. In brief, E. coli strains were treated with carolacton in serial dilution in either the presence or absence of sub-inhibitory concentrations of polymyxin B nonapeptide (PMBN; 3 µg/mL) and/or phenylalanine–arginine β-napthylamide (PAβN; 20 µg/mL) for 16 h at 37 °C in Mueller–Hinton broth. The MICs were assessed by visual inspection of the plates.

spFolD = molecular target: T1, spFolD (Streptococcus pneumoniae serotype 4, UniProt Q97RI9); experiment: SPR binding to spFolD; parameters: species or system S. pneumoniae
T1 construct: His-tag (TEV-cleavable, vector pHis-TEV); made in house; host or cells: E. coli BL21 (DE3)
T1 sequence (Q97RI9 whole entry): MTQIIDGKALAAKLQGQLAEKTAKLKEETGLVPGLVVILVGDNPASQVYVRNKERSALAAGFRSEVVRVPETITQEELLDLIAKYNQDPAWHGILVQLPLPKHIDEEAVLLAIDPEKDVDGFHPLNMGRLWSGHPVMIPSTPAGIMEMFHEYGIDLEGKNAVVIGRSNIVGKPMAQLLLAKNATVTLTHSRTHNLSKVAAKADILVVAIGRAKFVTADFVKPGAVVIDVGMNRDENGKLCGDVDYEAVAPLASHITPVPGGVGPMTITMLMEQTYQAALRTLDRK
Experimental: All surface plasmon resonance (SPR) experiments described in this study were performed on a Biacore X100 system. Different FolDs with or without His-tag were coupled on CM5 sensor chips (GE Healthcare) by the amine coupling method using a kit from GE Healthcare Life Sciences (Freiburg, Germany). A pH scouting process was performed before protein immobilization to test the most appropriate buffer and the protein concentration for protein coupling. Finally, 20 μg/mL of ecFolD in 10 mM maleate buffer (pH 6.8), 30 μg/mL of ecFolD Q98H in 10 mM maleate buffer (pH 6.3), 40 μg/mL of ecFolD K54N in 10 mM maleate buffer (pH 5.8), 20 μg/mL of spFolD in 10 mM maleate buffer (pH 6.0) and 15 μg/mL of MTHFD2 (His-tag cleaved) in 10 mM maleate buffer (pH 6.8) were used for coupling. In the protein immobilization procedure, the contact time was calculated based on the pH scouting results to achieve ~3000–5000 relative resonance units (RU). The buffer used in the SPR assays was 1× HBS-P buffer (10 mM HEPES pH 7.4, 150 mM NaCl, 0.05% Tween 20). The 1 mM stock solution of carolacton was prepared in 1× HBS-P buffer and diluted to different concentration ranges by two-fold serial dilution. In the SPR assay, the association time was 180 s and the dissociation time was 600 s. Data analysis was performed using the Biacore evaluation software. […]

With `CO[C@H](CC(=O)O)[C@@H](C)C(=O)[C@H](C)/C=C(\C)[C@H]1OC(=O)[C@H](O)[C@H](O)/C=C/[C@H](C)CCC[C@@H]1C` [carolacton] the MIC (E. coli (TolC-deficient); Escherichia coli) was 0.13 µg/mL (≈ 0.277 µM), the MIC (E. coli (TolC-deficient); no additive, cation-adjusted Mueller–Hinton broth, 37 °C) was 0.125 µg/mL (≈ 0.267 µM) and the Kd (spFolD) was 27 nM. The koff (spFolD) was 0.0316 s⁻¹.
